According to the SangsterLogP compilation:

Assay: method code SF-AS, from DOI: 10.1016/s0045-6535(98)00132-5, PMID: 9753760

Row | logP | Structure (SMILES)
1 | 1.94 | Cc1ccc(NC(=O)c2cccc([N+](=O)[O-])c2O)cc1
2 | 2.22 | Cc1ccc(NC(=O)c2cc([N+](=O)[O-])ccc2O)cc1
3 | 1.83 | COc1ccc(NC(=O)c2cccc([N+](=O)[O-])c2O)cc1
4 | 2.16 | O=C(Nc1ccc(Cl)cc1)c1cccc([N+](=O)[O-])c1O
5 | 1.98 | CCOc1ccc(NC(=O)c2cccc([N+](=O)[O-])c2O)cc1
6 | 2.32 | Cc1c(Cl)cccc1NC(=O)c1cccc([N+](=O)[O-])c1O
7 | 1.9 | Cc1ccccc1NC(=O)c1cccc([N+](=O)[O-])c1O
8 | 2.64 | Cc1c(Cl)cccc1NC(=O)c1cc([N+](=O)[O-])ccc1O

Continued, compound first:

Row | Structure (SMILES) | logP
9 | Cc1ccc(Cl)cc1NC(=O)c1cccc([N+](=O)[O-])c1O | 2.24
10 | CCOc1ccccc1NC(=O)c1cccc([N+](=O)[O-])c1O | 2.04
11 | O=C(Nc1ccc(Cl)cc1)c1cc([N+](=O)[O-])ccc1O | 2.54
12 | COc1ccc(NC(=O)c2cc([N+](=O)[O-])ccc2O)cc1 | 2.19
13 | CCOc1ccccc1NC(=O)c1cc([N+](=O)[O-])ccc1O | 2.34
14 | Cc1ccc(Cl)cc1NC(=O)c1cc([N+](=O)[O-])ccc1O | 2.61
